Measured values published in patent US8318725B2, “Aryl indolyl sulfonamide compounds and their use as 5-HT6 ligands” (Suven Life Sciences Limited, priority 2008, dated 2012).
pKi: −log10 of the molar value. Where a name gives a salt, the structure may show the parent alone.

Columns and labels:
Human 5-HT6 receptor = target: T1, Human 5-HT6 receptor (Homo sapiens, UniProt P50406); assay: Binding assay for human 5-HT6 receptor ([3H] LSD radioligand); conditions: [3H] LSD 1.5 nM, human recombinant receptor in HEK293 cells; for inhibition at 0.1 µM: read-out: % Inhibition of specific binding at 100 nM
T1 construct: expressed in transfected cells; host or cells: HEK293
Experimental: Binding Assay for Human 5-HT6 Receptor
Compounds can be tested according to the following the procedures. Materials and Methods:
Receptor source: Human recombinant expressed in HEK293 cells
Radioligand: [^3H] LSD (60-80 Ci/mmol)
Final ligand concentration—[1.5 nM]
Non-specific determinant: Methiothepin mesylate—[0.1 μM]
Reference compound: Methiothepin mesylate
Positive control: Methiothepin mesylate
Reactions were carried out in […] TRIS-HCl (pH 7.4) containing 10 μM MgCl2, 0.5 mM EDTA for 60 minutes at 37° C. The reaction was terminated by rapid vacuum filtration onto glass fiber filters. Radioactivity trapped onto the filters was determined and compared to control values in order to ascertain any interactions of test compound(s) with the cloned serotonin 5-HT6binding site.
Literature Reference: Monsma F. J. Jr., et al., Molecular Cloning and Expression of Novel Serotonin Receptor with High Affinity for Tricyclic Psychotropic Drugs. Mol. Pharmacol. (43): 320-327 (1993).

T1 sequence (P50406 whole entry): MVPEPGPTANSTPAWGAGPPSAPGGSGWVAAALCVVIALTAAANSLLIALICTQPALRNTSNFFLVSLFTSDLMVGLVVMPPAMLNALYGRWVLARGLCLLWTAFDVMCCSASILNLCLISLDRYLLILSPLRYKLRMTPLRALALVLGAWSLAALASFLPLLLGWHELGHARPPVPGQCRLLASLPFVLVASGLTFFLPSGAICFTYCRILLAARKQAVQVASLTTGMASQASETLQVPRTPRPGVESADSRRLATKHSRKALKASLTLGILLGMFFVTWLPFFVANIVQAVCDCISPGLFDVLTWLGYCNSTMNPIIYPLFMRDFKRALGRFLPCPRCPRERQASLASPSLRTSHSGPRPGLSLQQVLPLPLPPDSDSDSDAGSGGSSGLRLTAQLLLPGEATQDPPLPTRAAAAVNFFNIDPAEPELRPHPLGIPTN

| melting point [°C] | inhibition at 0.1 µM (Human 5-HT6 receptor; 100 nM test compound) [%] | SMILES | further results |
| --- | --- | --- | --- |
| 214.7 to 215.6 | – | CN1CCN(Cc2cc(S(=O)(=O)n3ccc4cc(Br)ccc43)ccc2Cl)CC1.Cl.Cl | – |
| 219.4 to 221.6 | – | CN1CCN(Cc2cc(S(=O)(=O)n3ccc4cc(F)ccc43)ccc2Br)CC1.Cl.Cl | – |
| 214.3 to 215.7 | – | COc1ccc2c(c1)c(C)cn2S(=O)(=O)c1ccc(Br)c(CN2CCN(C)CC2)c1.Cl.Cl | – |
| 211.3 to 212.1 | – | CCN1CCN(Cc2cc(S(=O)(=O)n3cc(C)c4cc(OC)ccc43)ccc2Br)CC1.Cl.Cl | – |
| 213.3 to 214.2 | – | COc1ccc2c(c1)c(C)cn2S(=O)(=O)c1ccc(Cl)c(CN2CCN(C)CC2)c1.Cl.Cl | – |
| 195.4 to 199.3 | – | COc1ccc2c(c1)c(Br)cn2S(=O)(=O)c1ccc(Cl)c(CN2CCN(C)CC2)c1.Cl.Cl | – |
| 216.9 to 219.7 | – | CCN1CCN(Cc2cc(S(=O)(=O)n3cc(Br)c4cc(OC)ccc43)ccc2Cl)CC1.Cl.Cl | – |
| 218.9 to 220.5 | – | CCN1CCN(Cc2cc(S(=O)(=O)n3cc(C)c4ccccc43)ccc2Cl)CC1.Cl.Cl | – |
| 208.2 to 209.2 | – | CN1CCN(Cc2cc(S(=O)(=O)n3ccc4cc(Br)ccc43)ccc2Br)CC1.Cl.Cl | – |
| 226.99 | – | CCN1CCN(Cc2cc(S(=O)(=O)n3cc(C)c4cc(OC)ccc43)ccc2C)CC1.Cl.Cl | – |
| 190.32 | – | COc1ccc2c(c1)c(C)cn2S(=O)(=O)c1ccc(C)c(CN2CCN(C)CC2)c1.Cl.Cl | – |
| 160.94 | – | CCN1CCN(Cc2cc(S(=O)(=O)n3ccc4cc(OC)ccc43)ccc2C)CC1.Cl.Cl | – |
| – | – | CCN1CCN(Cc2cc(S(=O)(=O)n3ccc4ccccc43)ccc2Br)CC1 [Example 1, 1-1-[4-Bromo-3-(4-ethylpiperazin-1-ylmethyl)benzenesulfonyl]-1H-indole] | % Inhibition of specific binding at 100 nM (Human 5-HT6 receptor; 100 nM test compound): 78.91% |
| 115.2 to 120 | – | COc1ccc2c(ccn2S(=O)(=O)c2ccc(Br)c(CN3CCN(C)CC3)c2)c1 [Example 2, 1-[4-Bromo-3-(4-methylpiperazin-1-ylmethyl)benzenesulfonyl]-5-methoxy-1H-indole] | – |
| 196.1 to 198.6 | 50.5 | CCN1CCN(Cc2cc(S(=O)(=O)n3ccc4cc(OC)ccc43)ccc2Br)CC1 [Example 3, 1-[4-Bromo-3-(4-ethylpiperazin-1-ylmethyl)benzenesulfonyl]-5-methoxy-1H-indole] | – |
| 92.2 to 93.9 | 62.5 | CCN1CCN(Cc2cc(S(=O)(=O)n3ccc4cc(F)ccc43)ccc2Br)CC1 [Example 4, 1-[4-Bromo-3-(4-ethylpiperazin-1-ylmethyl)benzenesulfonyl]-5-fluoro-1H-indole] | – |

| melting point [°C] | inhibition at 0.1 µM (Human 5-HT6 receptor; 100 nM test compound) [%] | SMILES | further results |
| --- | --- | --- | --- |
| 161.3 to 162.6 | – | CN1CCN(Cc2cc(S(=O)(=O)n3cc(Br)c4cc(F)ccc43)ccc2Cl)CC1 [Example 5, 1-[4-Chloro-3-(4-methylpiperazin-1-ylmethyl)benzenesulfonyl]-5-fluoro-3-bromo-1H-indole] | – |
| – | 67.6 | COc1ccc2c(ccn2S(=O)(=O)c2cccc(CN3CCN(C)CC3)c2)c1 [Example 9, 5-Methoxy-1-[3-(4-methylpiperazin-1-ylmethyl)benzenesulfonyl]-1H-indole] | – |
| – | 79.2 | CN1CCN(Cc2cccc(S(=O)(=O)n3ccc4cc(F)ccc43)c2)CC1 [Example 10, 5-Fluoro-1-[3-(4-methylpiperazin-1-ylmethyl)benzenesulfonyl]-1H-indole] | – |
| – | 63.7 | CCOc1ccc2c(ccn2S(=O)(=O)c2cccc(CN3CCN(C)CC3)c2)c1 [Example 11, 5-Ethoxy-1-[3-(4-methylpiperazin-1-ylmethyl)benzenesulfonyl]-1H-indole] | – |
| 210.6 to 213.9 | 83.3 | CN1CCN(Cc2cc(S(=O)(=O)n3ccc4ccccc43)ccc2Cl)CC1.Cl.Cl [Example 13, 1-[4-Chloro-3-(4-methylpiperazin-1-ylmethyl)benzenesulfonyl]-1H-indole dihydrochloride] | – |
| 220.2 to 221.3 | 73 | CN1CCN(Cc2cc(S(=O)(=O)n3ccc4cc(F)ccc43)ccc2Cl)CC1.Cl.Cl [Example 14, 1-[4-Chloro-3-(4-methylpiperazin-1-ylmethyl)benzenesulfonyl]-5-fluoro-1H-indole dihydrochloride] | – |
| 196 to 197.1 | – | CCN1CCN(Cc2cc(S(=O)(=O)n3ccc4ccccc43)ccc2Cl)CC1.Cl.Cl [Example 15, 1-[4-Chloro-3-(4-ethylpiperazin-1-ylmethyl)benzenesulfonyl]-1H-indole dihydrochloride] | pKi (Human 5-HT6 receptor): 7.74 |
| 208.8 to 210.2 | 42 | COc1ccc2c(ccn2S(=O)(=O)c2ccc(Cl)c(CN3CCN(C)CC3)c2)c1.Cl.Cl [Example 16, 1-[4-Chloro-3-(4-methylpiperazin-1-ylmethyl)benzenesulfonyl]-5-methoxy-1H-indole dihydrochloride] | – |
| 209.5 to 211 | 55.7 | CCN1CCN(Cc2cc(S(=O)(=O)n3ccc4cc(OC)ccc43)ccc2Cl)CC1.Cl.Cl [Example 18, 1-[4-Chloro-3-(4-ethylpiperazin-1-ylmethyl)benzenesulfonyl]-5-methoxy-1H-indole dihydrochloride] | – |
| 205.9 to 207.2 | 82 | CCN1CCN(Cc2cc(S(=O)(=O)n3ccc4c(Cl)cccc43)ccc2Cl)CC1.Cl.Cl [Example 19, 1-[4-Chloro-3-(4-ethylpiperazin-1-ylmethyl)benzenesulfonyl]-4-chloro-1H-indole dihydrochloride] | – |
| 242.7 to 244.3 | 85.2 | CN1CCN(Cc2cc(S(=O)(=O)n3ccc4c(Cl)cccc43)ccc2Cl)CC1.Cl.Cl [Example 20, 1-[4-Chloro-3-(4-methylpiperazin-1-ylmethyl)benzenesulfonyl]-4-chloro-1H-indole dihydrochloride] | – |
| 214.1 to 216 | 88.8 | CN1CCN(Cc2cc(S(=O)(=O)n3ccc4ccccc43)ccc2Br)CC1.Cl.Cl [Example 21, 1-[4-Bromo-3-(4-methylpiperazin-1-ylmethyl)benzenesulfonyl]-1H-indole dihydrochloride] | – |
| 198.1 to 199.3 | 62.2 | COc1ccc2c(ccn2S(=O)(=O)c2ccc(C)c(CN3CCN(C)CC3)c2)c1.Cl.Cl [Example 24, 1-[4-methyl-3-(4-methylpiperazin-1-ylmethyl)benzenesulfonyl]-5-methoxy-1H-indole dihydrochloride] | – |
| 204.1 to 205.5 | 64.8 | CCN1CCN(Cc2cc(S(=O)(=O)n3ccc4cc(F)ccc43)ccc2Cl)CC1.Cl.Cl [Example 25, 1-[4-Chloro-3-(4-ethylpiperazin-1-ylmethyl)benzenesulfonyl]-5-fluoro-1H-indole dihydrochloride] | – |
| – | 98.5 | CCN1CCCN(Cc2cc(S(=O)(=O)n3cc(C)c4ccccc43)ccc2Cl)CC1 [Example 45, 1-[4-Chloro-3-(4-ethyl-[1,4]diazepan-1-ylmethyl)benzenesulfonyl]-3-methyl-1H-indole dihydrochloride] | – |
| – | 92.2 | Cc1cn(S(=O)(=O)c2ccc(Cl)c(CN3CCCN(C)CC3)c2)c2ccccc12 [Example 46, 1-[4-Chloro-3-(4-methyl[1,4]diazepan-1-ylmethyl)benzenesulfonyl]-3-methyl-1H-indole dihydrochloride] | – |
